# Test results reported in PubChem BioAssay AID1918938 (Molecular Pharmacology Branch, DTP, NCI, 2023).
# Tested on: 556581-035-R-J1-PDC complex spheroid viability
# Test: Anticancer human tumor 556581-035-R-J1-PDC patient-derived ovarian carcinoma cell line growth inhibition
# Conditions: for IC50: curve of first compound; for viability, T/C: stronger effect = lower value
# Summary of the method: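 Multicellular complex spheroids of tumor cells with human endothelial cells (HUVEC) and mesenchymal stem cells; the LSD1 inhibitor iadademstat was combined with standard-of-care or investigational agents. Top concentration at or near clinical Cmax, half-log dilutions; final DMSO ≤0.25%.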
# [1] = second compound 0.1 µM, first compound 0.000316 µM
# [2] = second compound 0.1 µM, first compound 0.001 µM
# [3] = second compound 0.1 µM, first compound 0.00316 µM
# [4] = second compound 0.1 µM, first compound 0.01 µM
# [5] = second compound 0.1 µM, first compound 0.0316 µM
# [6] = second compound 0.1 µM, first compound 0.1 µM
# [7] = second compound 0.316 µM, first compound 0.000316 µM
# [8] = second compound 0.316 µM, first compound 0.001 µM
# [9] = second compound 0.316 µM, first compound 0.00316 µM
# [10] = second compound 0.316 µM, first compound 0.01 µM
# [11] = second compound 0.316 µM, first compound 0.0316 µM
# [12] = second compound 0.316 µM, first compound 0.1 µM
# [13] = second compound 1 µM, first compound 0.000316 µM
# [14] = second compound 1 µM, first compound 0.001 µM
# [15] = second compound 1 µM, first compound 0.00316 µM
# [16] = second compound 1 µM, first compound 0.01 µM
# [17] = second compound 1 µM, first compound 0.0316 µM
# [18] = second compound 1 µM, first compound 0.1 µM
# [19] = second compound 3.16 µM, first compound 0.000316 µM
# [20] = second compound 3.16 µM, first compound 0.001 µM
# [21] = second compound 3.16 µM, first compound 0.00316 µM
# [22] = second compound 3.16 µM, first compound 0.01 µM
# [23] = second compound 3.16 µM, first compound 0.0316 µM
# [24] = second compound 3.16 µM, first compound 0.1 µM
# [25] = second compound 10 µM, first compound 0.000316 µM
# [26] = second compound 10 µM, first compound 0.001 µM
# [27] = second compound 10 µM, first compound 0.00316 µM
# [28] = second compound 10 µM, first compound 0.01 µM
# [29] = second compound 10 µM, first compound 0.0316 µM
# [30] = second compound 10 µM, first compound 0.1 µM
# 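Further: spheroids exposed to agents for seven days.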
# 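Wherever viability, T/C is given: 100% = DMSO vehicle control wells.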
Compound,IC50 (second compound 0.1 µM) [nM],IC50 (second compound 0.316 µM) [nM],IC50 (second compound 1 µM) [nM],IC50 (second compound 3.16 µM) [nM],IC50 (second compound 10 µM) [nM],"viability, T/C [1] [%]","viability, T/C [2] [%]","viability, T/C [3] [%]","viability, T/C [4] [%]","viability, T/C [5] [%]","viability, T/C [6] [%]","viability, T/C [7] [%]","viability, T/C [8] [%]","viability, T/C [9] [%]","viability, T/C [10] [%]","viability, T/C [11] [%]","viability, T/C [12] [%]","viability, T/C [13] [%]","viability, T/C [14] [%]","viability, T/C [15] [%]",further results
CC(C)CC(NC(=O)C(Cc1ccccc1)NC(=O)c1cnccn1)B(O)O (stereo not given) + NC1CCC(NC2CC2c2ccccc2)CC1,< 0.316,< 0.316,< 0.316,< 0.316,< 0.316,7.87,0.11,0.13,0.13,0.08,0.24,7.18,0.45,0.63,0.39,0.44,1.89,11.7,0.44,0.91,"viability, T/C [16]: 0.17%; viability, T/C [17]: 0.08%; viability, T/C [18]: 0.43%; viability, T/C [19]: 7.91%; viability, T/C [20]: 0.49%; viability, T/C [21]: 0.13%; viability, T/C [22]: 0.07%; viability, T/C [23]: 0.75%; viability, T/C [24]: 0.19%; viability, T/C [25]: 5.64%; viability, T/C [26]: 0.22%; viability, T/C [27]: 0.25%; viability, T/C [28]: 0.49%; viability, T/C [29]: 0.46%; viability, T/C [30]: 0.24%"
CC(C)CC(NC(=O)CNC(=O)c1cc(Cl)ccc1Cl)B1OC(=O)CC(CC(=O)O)(C(=O)O)O1 (stereo not given) + NC1CCC(NC2CC2c2ccccc2)CC1,4.01,4.35,4.48,4.6,3.25,90.7,99.5,62.3,3.38,0.24,0.3,95.5,93.4,67.6,4.37,0.84,0.84,86.2,88,69.7,"viability, T/C [16]: 4.47%; viability, T/C [17]: 0.33%; viability, T/C [18]: 0.17%; viability, T/C [19]: 91.3%; viability, T/C [20]: 86%; viability, T/C [21]: 72.4%; viability, T/C [22]: 3.59%; viability, T/C [23]: 0.33%; viability, T/C [24]: 0.6%; viability, T/C [25]: 72.3%; viability, T/C [26]: 90.1%; viability, T/C [27]: 51.2%; viability, T/C [28]: 2.53%; viability, T/C [29]: 0.48%; viability, T/C [30]: 0.7%"
